Data from patent publication US9468650B2, “Inhibition of endosomal toll-like receptor activation” (DUKE UNIVERSITY, priority 2009, dated 2016).

Assays:
[1] = mouse, in vivo, 40 mg/kg
mammalian cell lines = settings: cited from earlier work
TLR3 = test: Cytokine production (TNFα, IL-6) of murine macrophage Raw264.7 stimulated with poly I:C; format: cell-based; settings: TNFα and IL-6 by ELISA
[2] = mouse, in vivo; cited from earlier work

Row | Substance | concentration inducing over 50% cell death (Raw264.7 cells) | adverse effects on viability of mice [1] | cytotoxicity (remark) (mammalian cell lines) | other results
1 | polyamidoamine dendrimer, 1,4-diaminobutane core, G3 [PAMAM] | about 160 μg/ml | no adverse effects on viability | – | –
2 | Polyethyleneimine [PEI] | – | – | 3. high cytotoxicity. | –
3 | protamine [reference compound] | ~280 µg/mL | – | – | effect on poly I:C (TLR3 ligand) induced inflammatory cytokine production (TLR3): did not block but significantly enhanced
4 | β-cyclodextrin-containing polycation [CDP] | – | no adverse effects on viability | – | tolerability on macrophages (Raw264.7 cells): well tolerated; LD50 [2]: 200 mg/kg
5 | Poly(allylamine) [PAL] | – | – | 1. Commercially available. 2. Highly positive charged 3. Low toxicity. | –
